Results taken from patent US20090311217A1, “3-SUBSTITUTED-1H-INDOLE COMPOUNDS, THEIR USE AS MTOR KINASE AND PI3 KINASE INHIBITORS, AND THEIR SYNTHESES” (priority 2008, published 2009).

Assays:
Format in all cases: biochemical
PI3K-gamma = PI3K-gamma (Homo sapiens, UniProt P48736); experiment: PI3K-gamma fluorescence polarization assay; conditions: PI3Kγ Avg. IC50
Procedure, shortened: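 FP displacement read-out: 100 nM GST-GRP1 PH domain plus 5 nM BODIPY-TMR-IP4 added after EDTA stop. Preceding kinase step: 5 ng enzyme, diC8-PI(4,5)P2 2.5 μM, ATP 25 μM, MgCl2 2.5 mM, HEPES 5 mM pH 7, one hour, 25° C.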

PI3K-alpha = PI3K-alpha (Homo sapiens, UniProt P42336); experiment: PI3K-alpha fluorescence polarization assay; conditions: read-out: PI3Kα Avg. IC50
human TOR = target: T1, human TOR (Homo sapiens, UniProt P42345); experiment: mTOR enzyme assay (DELFIA, His6-S6K substrate); conditions: read-out: mTOR Kinase Avg. IC50
T1 construct: FLAG

Chain of PI3K-gamma (P48736 whole entry, species assumed, the tested form may be a part): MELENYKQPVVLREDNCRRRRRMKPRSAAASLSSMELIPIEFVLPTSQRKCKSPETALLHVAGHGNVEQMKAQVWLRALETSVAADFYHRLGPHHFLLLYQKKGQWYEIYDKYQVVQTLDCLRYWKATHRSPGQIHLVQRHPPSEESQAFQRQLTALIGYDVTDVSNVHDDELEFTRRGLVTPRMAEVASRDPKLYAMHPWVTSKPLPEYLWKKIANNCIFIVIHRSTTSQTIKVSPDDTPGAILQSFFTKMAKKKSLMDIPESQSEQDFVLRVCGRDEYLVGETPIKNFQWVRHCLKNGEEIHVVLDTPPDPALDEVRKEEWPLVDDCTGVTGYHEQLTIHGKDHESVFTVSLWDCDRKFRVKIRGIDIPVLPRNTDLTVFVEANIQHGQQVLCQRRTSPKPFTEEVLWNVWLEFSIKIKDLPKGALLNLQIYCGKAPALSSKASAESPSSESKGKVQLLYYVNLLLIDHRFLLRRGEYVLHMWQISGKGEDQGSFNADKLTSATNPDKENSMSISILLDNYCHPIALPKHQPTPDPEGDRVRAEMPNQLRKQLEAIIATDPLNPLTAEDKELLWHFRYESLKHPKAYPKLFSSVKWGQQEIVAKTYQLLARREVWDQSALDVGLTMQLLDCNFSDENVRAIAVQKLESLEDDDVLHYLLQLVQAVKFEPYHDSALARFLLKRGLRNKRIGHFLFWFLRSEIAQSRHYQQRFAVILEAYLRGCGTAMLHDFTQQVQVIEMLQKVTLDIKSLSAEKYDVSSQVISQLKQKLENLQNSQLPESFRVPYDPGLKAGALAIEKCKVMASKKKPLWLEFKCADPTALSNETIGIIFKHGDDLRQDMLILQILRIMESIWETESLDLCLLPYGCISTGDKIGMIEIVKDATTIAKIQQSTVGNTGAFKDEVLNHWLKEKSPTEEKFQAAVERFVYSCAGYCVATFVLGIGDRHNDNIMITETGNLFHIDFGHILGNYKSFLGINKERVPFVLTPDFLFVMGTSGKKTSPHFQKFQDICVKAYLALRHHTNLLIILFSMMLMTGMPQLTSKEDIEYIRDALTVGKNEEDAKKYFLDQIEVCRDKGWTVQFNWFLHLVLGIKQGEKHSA
Chain of PI3K-alpha (P42336 whole entry, species assumed): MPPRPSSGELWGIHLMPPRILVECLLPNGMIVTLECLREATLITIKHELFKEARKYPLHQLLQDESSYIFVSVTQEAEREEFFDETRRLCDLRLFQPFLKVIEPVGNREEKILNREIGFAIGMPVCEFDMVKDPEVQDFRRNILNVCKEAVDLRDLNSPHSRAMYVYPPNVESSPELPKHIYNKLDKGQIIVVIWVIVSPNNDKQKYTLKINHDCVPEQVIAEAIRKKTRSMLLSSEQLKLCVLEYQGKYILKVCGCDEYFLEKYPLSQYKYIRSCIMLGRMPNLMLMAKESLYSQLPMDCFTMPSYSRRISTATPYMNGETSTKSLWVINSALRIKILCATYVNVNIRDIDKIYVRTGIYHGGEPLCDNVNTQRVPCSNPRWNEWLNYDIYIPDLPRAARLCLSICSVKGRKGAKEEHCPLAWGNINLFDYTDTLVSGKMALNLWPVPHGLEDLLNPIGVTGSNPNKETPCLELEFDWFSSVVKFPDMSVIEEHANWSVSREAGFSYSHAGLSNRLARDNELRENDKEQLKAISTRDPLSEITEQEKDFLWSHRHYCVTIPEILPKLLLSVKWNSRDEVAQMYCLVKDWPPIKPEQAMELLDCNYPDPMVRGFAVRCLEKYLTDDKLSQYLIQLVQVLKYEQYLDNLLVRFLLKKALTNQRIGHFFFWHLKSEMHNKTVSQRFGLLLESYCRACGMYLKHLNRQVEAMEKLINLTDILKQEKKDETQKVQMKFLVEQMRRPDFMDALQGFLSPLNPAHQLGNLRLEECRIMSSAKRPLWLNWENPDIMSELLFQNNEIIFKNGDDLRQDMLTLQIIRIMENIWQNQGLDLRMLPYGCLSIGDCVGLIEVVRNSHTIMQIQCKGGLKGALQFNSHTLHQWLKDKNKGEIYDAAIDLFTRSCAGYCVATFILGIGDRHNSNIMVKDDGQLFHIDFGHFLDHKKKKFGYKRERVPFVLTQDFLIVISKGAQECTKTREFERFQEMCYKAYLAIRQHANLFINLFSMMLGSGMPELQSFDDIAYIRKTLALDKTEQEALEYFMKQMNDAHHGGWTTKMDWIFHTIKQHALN
Chain of PI3K-alpha (P27986 whole entry partner, species assumed): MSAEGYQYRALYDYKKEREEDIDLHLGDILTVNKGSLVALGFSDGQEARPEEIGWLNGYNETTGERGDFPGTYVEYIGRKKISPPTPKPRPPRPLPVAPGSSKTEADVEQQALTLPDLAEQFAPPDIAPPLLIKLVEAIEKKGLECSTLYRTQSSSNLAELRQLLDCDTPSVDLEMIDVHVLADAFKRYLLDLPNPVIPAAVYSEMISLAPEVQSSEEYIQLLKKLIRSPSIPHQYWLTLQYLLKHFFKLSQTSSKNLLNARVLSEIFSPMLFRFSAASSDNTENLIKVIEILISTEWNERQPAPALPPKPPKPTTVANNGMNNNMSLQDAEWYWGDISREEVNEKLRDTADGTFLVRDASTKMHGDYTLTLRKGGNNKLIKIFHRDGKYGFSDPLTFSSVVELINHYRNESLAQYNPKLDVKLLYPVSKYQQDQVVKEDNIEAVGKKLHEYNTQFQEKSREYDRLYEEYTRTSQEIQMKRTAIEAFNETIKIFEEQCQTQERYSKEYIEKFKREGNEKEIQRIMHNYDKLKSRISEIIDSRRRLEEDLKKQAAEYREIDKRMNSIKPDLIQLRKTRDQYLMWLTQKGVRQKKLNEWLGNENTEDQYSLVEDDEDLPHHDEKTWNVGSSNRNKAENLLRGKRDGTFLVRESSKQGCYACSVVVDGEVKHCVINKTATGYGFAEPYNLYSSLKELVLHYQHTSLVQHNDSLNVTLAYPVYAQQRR

| IC50 (PI3K-gamma) | IC50 (PI3K-alpha) | IC50 (human TOR) | Structure (SMILES) |
| --- | --- | --- | --- |
| 3.07 µM | 1.09 µM | 0.22 µM | Cn1c(-c2ccc(F)cc2)c(C=C2Oc3cc(O)cc(O)c3C2=O)c2ccccc21 [Example 200, 2-{[2-(4-fluorophenyl)-1-methyl-1H-indol-3-yl]methylene}-4,6-dihydroxy-1-benzofuran-3(2H)-one] |
| 5.46 µM | 0.712 µM | 0.12 µM | Cn1c(-c2ccc(Cl)cc2)c(C=C2Oc3cc(O)cc(O)c3C2=O)c2ccccc21 [Example 201, 2-{[2-(4-chlorophenyl)-1-methyl-1H-indol-3-yl]methylene}-4,6-dihydroxy-1-benzofuran-3(2H)-one] |
| 7 µM | 1.05 µM | 0.095 µM | O=C1C(=Cc2c(-c3cccnc3)[nH]c3ccccc23)Oc2cc(O)cc(O)c21 [Example 202, 4,6-dihydroxy-2-[(2-pyridin-3-yl-1H-indol-3-yl)methylene]-1-benzofuran-3(2H)-one] |
| 6.62 µM | 1.41 µM | 0.15 µM | O=C1C(=Cc2c(-c3ccncc3)[nH]c3ccccc23)Oc2cc(O)cc(O)c21 [Example 203, 4,6-dihydroxy-2-[(2-pyridin-4-yl-1H-indol-3-yl)methylene]-1-benzofuran-3(2H)-one] |
| 6.43 µM | 1.16 µM | 0.19 µM | Cc1noc(C)c1-c1[nH]c2ccccc2c1C=C1Oc2cc(O)cc(O)c2C1=O [Example 204, 2-{[2-(3,5-dimethylisoxazol-4-yl)-1H-indol-3-yl]methylene}-4,6-dihydroxy-1-benzofuran-3(2H)-one] |
| 2.37 µM | 0.479 µM | 0.11 µM | O=C1C(=Cc2c(-c3cccc(O)c3)[nH]c3ccccc23)Oc2cc(O)cc(O)c21 [Example 205, 4,6-dihydroxy-2-{[2-(3-hydroxyphenyl)-1H-indol-3-yl]methylene}-1-benzofuran-3(2H)-one] |
| 1.05 µM | 0.573 µM | 0.065 µM | O=C1C(=Cc2c(-c3ccc(O)cc3)[nH]c3ccccc23)Oc2cc(O)cc(O)c21 [Example 206, 4,6-dihydroxy-2-{[2-(4-hydroxyphenyl)-1H-indol-3-yl]methylene}-1-benzofuran-3(2H)-one] |
| 1.48 µM | 0.674 µM | 0.19 µM | O=C1C(=Cc2c(-c3cccc(F)c3)[nH]c3ccccc23)Oc2cc(O)cc(O)c21 [Example 210, 2-{[2-(3-fluorophenyl)-1H-indol-3-yl]methylene}-4,6-dihydroxy-1-benzofuran-3(2H)-one] |
| 2.65 µM | 0.77 µM | 0.17 µM | CCn1c(-c2ccccc2)c(C=C2Oc3cc(O)cc(O)c3C2=O)c2ccccc21 [Example 213, 2-[(1-ethyl-2-phenyl-1H-indol-3-yl)methylene]-4,6-dihydroxy-1-benzofuran-3(2H)-one] |
| 2.61 µM | 0.264 µM | 0.29 µM | Cc1[nH]c2ccc(Cl)cc2c1C=C1Oc2cc(O)cc(O)c2C1=O [Example 215, 2-[(5-chloro-2-methyl-1H-indol-3-yl)methylene]-4,6-dihydroxy-1-benzofuran-3(2H)-one] |
| > 10 µM | 3.66 µM | 0.06 µM | Cn1c(-c2ccccn2)c(C=C2Oc3cc(O)cc(O)c3C2=O)c2ccccc21 [Example 223, 4,6-dihydroxy-2-[(1-methyl-2-pyridin-2-yl-1H-indol-3-yl)methylene]-1-benzofuran-3(2H)-one] |
| > 10 µM | 0.751 µM | 0.48 µM | N#CCCCCn1c(-c2ccccc2)c(C=C2Oc3cc(O)cc(O)c3C2=O)c2ccccc21 [Example 224, 5-{3-[(4,6-dihydroxy-3-oxo-1-benzofuran-2(3H)-ylidene)methyl]-2-phenyl-1H-indol-1-yl}pentanenitrile] |
| > 10 µM | 0.968 µM | 0.7 µM | N#CCCCCCn1c(-c2ccccc2)c(C=C2Oc3cc(O)cc(O)c3C2=O)c2ccccc21 [Example 225, 6-{3-[(4,6-dihydroxy-3-oxo-1-benzofuran-2(3H)-ylidene)methyl]-2-phenyl-1H-indol-1-yl}hexanenitrile] |
| > 10 µM | 1.65 µM | 0.67 µM | N#CCCCn1c(-c2cccnc2)c(C=C2Oc3cc(O)cc(O)c3C2=O)c2ccccc21 [Example 226, 4-{3-[(4,6-dihydroxy-3-oxo-1-benzofuran-2(3H)-ylidene)methyl]-2-pyridin-3-yl-1H-indol-1-yl}butanenitrile] |
| 7.51 µM | 0.757 µM | 3.8 µM | Cn1cc(C=C2Oc3cc(O)cc(O)c3C2=O)c2cc(F)ccc21 [Example 227, 2-[(5-fluoro-1-methyl-1H-indol-3-yl)methylene]-4,6-dihydroxy-1-benzofuran-3(2H)-one] |
| > 10 µM | 3.57 µM | 0.98 µM | Cn1cc(C=C2Oc3cc(O)cc(O)c3C2=O)c2cc([N+](=O)[O-])ccc21 [Example 228, 4,6-dihydroxy-2-[(1-methyl-5-nitro-1H-indol-3-yl)methylene]-1-benzofuran-3(2H)-one] |
| > 10 µM | 0.735 µM | 8.3 µM | Cn1cc(C=C2Oc3cc(O)cc(O)c3C2=O)c2cccc([N+](=O)[O-])c21 [Example 229, 4,6-dihydroxy-2-[(1-methyl-7-nitro-1H-indol-3-yl)methylene]-1-benzofuran-3(2H)-one] |
| > 10 µM | 2.02 µM | 3.4 µM | N#CCCCn1cc(C=C2Oc3cc(O)cc(O)c3C2=O)c2c(Br)cccc21 [Example 230, 4-{4-bromo-3-[(4,6-dihydroxy-3-oxo-1-benzofuran-2(3H)-ylidene)methyl]-1H-indol-1-yl}butanenitrile] |
| 6 µM | 0.611 µM | > 20 µM | CCc1cccc2c(C=C3Oc4cc(O)cc(O)c4C3=O)cn(CCCC#N)c12 [Example 232, 4-{3-[(4,6-dihydroxy-3-oxo-1-benzofuran-2(3H)-ylidene)methyl]-7-ethyl-1H-indol-1-yl}butanenitrile] |
| 2.82 µM | 0.288 µM | 0.36 µM | Cc1c(C=C2Oc3cc(O)cc(O)c3C2=O)c2cc(Cl)ccc2n1CCCC#N [Example 238, 4-{5-chloro-3-[(4,6-dihydroxy-3-oxo-1-benzofuran-2(3H)-ylidene)methyl]-2-methyl-1H-indol-1-yl}butanenitrile] |
| > 10 µM | 1 µM | > 20 µM | O=C1C(=Cc2c[nH]c3c(OCc4ccccc4)cccc23)Oc2cc(O)cc(O)c21 [Example 242, 2-{[7-(benzyloxy)-1H-indol-3-yl]methylene}-4,6-dihydroxy-1-benzofuran-3(2H)-one] |
| > 10 µM | 1.03 µM | 17 µM | O=C1C(=Cc2c[nH]c3c(O)cccc23)Oc2cc(O)cc(O)c21 [Example 246, 4,6-dihydroxy-2-[(7-hydroxy-1H-indol-3-yl)methylene]-1-benzofuran-3(2H)-one] |
| > 10 µM | 1.04 µM | > 20 µM | Cn1cc(C=C2Oc3cc(O)cc(O)c3C2=O)c2cc(Br)ccc21 [Example 248, 2-[(5-bromo-1-methyl-1H-indol-3-yl)methylene]-4,6-dihydroxy-1-benzofuran-3(2H)-one] |
| 2.24 µM | 0.18 µM | 12 µM | N#CCCCn1cc(C=C2Oc3cc(O)cc(O)c3C2=O)c2c(O)cccc21 [Example 257, 4-{3-[(4,6-dihydroxy-3-oxo-1-benzofuran-2(3H)-ylidene)methyl]-4-hydroxy-1H-indol-1-yl}butanenitrile] |
